Structures can show the parent of a compound that is named as a salt. Where two headings read alike, the source gives them in different places.
Tests used:
Swiss-Webster mice = conditions: mouse, in vivo; cited from earlier work
[1] = Emission spectra comparison of equimolar solutions / normalized spectra (FIG. 2, FIG. 3); format: physicochemical
Excerpt: The narrower spectral width makes the dyes particularly valuable for applications requiring multiple dyes such as flow cytometry, DNA sequencing [Smith, et at. (1985)] and multiparameter microscopy. The utility of the objects of this invention in multiparameter applications is illustrated in FIG. 3. […] The extinction coefficients for the pyrenyloxy sulfonic acid dyes are generally greater than 25,000 cm^-1 M^-1 and the quantum yields of the dyes in aqueous solution are generally above 0.5. In FIG. 4, the emission intensities of bovine serum albumin (BSA) conjugates of the pyrene isothiocyanate IPTS are compared to the BSA conjugates of compound 9. […] The subject dyes show only minor spectral shifts and intensity changes between water, methanol, and ethanol and have absorption and emission spectra that lack significant pH dependence between pH 6 and 10, as illustrated in FIG. 5. Table 4 lists the approximate spectral properties of a number of the dyes and intermediates that are the subject of this invention.

[2] = Comparison of spectral properties of reactive dyes, Table 1; format: physicochemical; conditions: for Quantum Yield: in aqueous solution, grade in words
Excerpt: A number of dyes have been proposed in the literature that can be excited and detected at wavelengths less than 500 nm. Several chemically reactive fluorophores that can be excited in the near ultraviolet and short wavelength visible region of the spectrum have been described. […] These proposed tracers are derived from naphthalene derivatives such as 5-dimethylaminonaphthalene-1-sulfonic acid (Dansyl) [Weber, Biochem. J. 41:145 (1952); Rinderknecht, Experientin 16:430 (1960)], 3-(isothiocyanato)naphthalene-1,5-disulfonic acid [Braunitzer, et al., Hoppe-Seyler's Z. Physiol. […] Chem. 358:505 (1977)], pyrene derivatives such as pyrene-1-butyric acid (PBA) [Malencik & Anderson, Biochemistry 11:3022 (1972)], 8-isothiocyanatopyrene-1,3,6-trisulfonic acid (IPTS) [Braunitzer,et al., Hoppe-Seyler's Z. Physiol. Chem. 354:1536 (1973)] and 8-hydroxypyrene-1,3,6-trisulfonyl chloride [Wolfbeis, Fresenies Z. Anal. Chem. 320:271 (1985)], stilbene derivatives such as 4-acetamido-4'-isothiocyanatostilbene-2,2'-disulfonic acid (SITS) [Cornelisse & Ploem, J. Histochem. Cytochem. 24:72 (1976)], and coumarin dyes such as 3-carboxy-7-hydroxycoumarin [Baker & Collis, J. Chem. Soc. 1949, S 12 (1949)], 7-hydroxy-4-methylumbelliferone-3-acetic acid (4-MUA) [Khalfan, et al., Biochem. J. 209:265 (1983)], 7-amino-4-methylcoumarin-3-acetic acid (AMCA) [Khalfan, et al., Histochem. J. 18:497 (1986)] and 7-diethylaminocoumarin [Staines, et al. (1988)].

[3] = Solubility in water / aqueous solution; conditions: solubility of the reactive form of the dye; grade in words
[4] = Quantum yield relative to quinine sulfate; format: physicochemical; conditions: in 50 mM phosphate buffer at pH 8.0
Excerpt: An estimate of the quantum yield of the dyes relative to quinine sulfate (quantum yield=0.55 in 1N sulfuric acid) was obtained by integrating the emission spectrum of the dye excited at the same wavelength and optical density as the standard.

[5] = Spectral properties (absorption/emission) of new pyrenyloxy sulfonic acid dyes, Table 4; format: physicochemical; conditions: 50 mM aqueous potassium phosphate buffer at pH 8.0
Protocol: Stock solutions were prepared by accurately weighing and dissolving 5-10 mg samples of the compounds in 2.000 ml water. A 10 μl aliquot of the stock solution was diluted into 2.00 ml of 50 mM potassium phosphate buffer at pH 8.0. Absorbance solutions were prepared by further diluting 200 μl of the diluted stock solution to 2.000 ml with 50 mM potassium phosphate buffer at pH 8.0. Absorption data was collected on an IBM Model 9420 UV/Visible Spectrophotometer and extinction coefficients were determined by standard Beer's Law calculations.
Uncorrected fluorescence data was obtained on a Perkin-Elmer Model 650-40 Fluorescence Spectrophotometer equipped with a Perkin-Elmer/Hitachi 057 X-Y Recorder using a ten- to twentyfold dilution of the absorbance solutions. Fluorescence of the pyrenyloxy sulfonic acid dyes was determined for the reactive dyes and for their conjugates with model compounds by dissolving the dye at a concentration above 1×10^-8M in an appropriate solvent such as water, methanol, ethanol, or dimethylsulfoxide and measurement of the fluorescence in a suitable instrument, such as a fluorescence spectrometer or fluorescence microscope or flow cytometer. Fluorescence could also be observed for the dyes in solution by visual inspection with illumination by a suitable source that emits light at wavelengths of less than 420 nm.

[6] = system: anion transport systems in red blood cells; conditions: cited from earlier work
[7] = background statement; cited from earlier work
[8] = system: microsomal glucose-6-phosphatase; conditions: cited from earlier work
[9] = in 1N sulfuric acid; cited from earlier work
[10] = full bandwidth at half peak height

O=S(=O)([O-])c1cc(O)c2ccc3c(S(=O)(=O)[O-])cc(S(=O)(=O)[O-])c4ccc1c2c34.[Na+].[Na+].[Na+] [8-hydroxypyrene-1,3,6-trisulfonic acid, trisodium salt]
toxicity to Swiss-Webster mice (Swiss-Webster mice): nontoxic to Swiss-Webster mice

O=S(=O)(O)c1cc(O)c2ccc3c(S(=O)(=O)O)cc(S(=O)(=O)O)c4ccc1c2c34 [8-hydroxypyrene-1,3,6-trisulfonic acid]
LD50 (Swiss-Webster mice): exceeding 1000 mg/kg

NNC(=O)COc1cc(S(=O)(=O)[O-])c2ccc3c(S(=O)(=O)[O-])cc(S(=O)(=O)[O-])c4ccc1c2c43.[Na+].[Na+].[Na+] [Compound 12, 1,3,6-Trisulfo-8-pyrenyloxyacethydrazide, trisodium salt]
resolution of emission from fluorescein and Lucifer Yellow CH [1]: emission which is well resolved from the emission bands of both these widely used dyes
ε ([2]; at first maximum): 28000 M⁻¹ cm⁻¹
ε ([2]; at second maximum): 23300 M⁻¹ cm⁻¹
Abs Max ([2]; first maximum): 399 nm
Emission Bandwidth [2, 10]: 50 nm
Emission Bandwidth [cm^-1] [2, 10]: 2168 cm⁻¹
Quantum Yield [2]: high
% Emission at 514 nm ([2]; percent of maximum emission at 514 nm): 3.8 % of max
Abs Max ([2]; second maximum): 376 nm
Water Solubility [3]: high
Quantum Yield [4]: 0.54
Emission Band-width [5]: 50 nm
Emission at 514 nm [5]: 3.9 % of max
Abs Max ([5]; first (longer-wavelength) maximum): 399 nm
Abs Max ([5]; second (shorter-wavelength) maximum): 377 nm

CC(=O)Nc1ccc(/C=C/c2ccc(N=C=S)cc2S(=O)(=O)O)c(S(=O)(=O)O)c1 [SITS, 4-acetamido-4'-isothiocyanatostilbene-2,2'-disulfonic acid]
effect on anion transport systems in red blood cells [6]: inhibitory effect
aqueous solubility / lipophilicity [7]: high water solubility
effect on microsomal glucose-6-phosphatase [8]: inhibitory effect
% Emission at 514 nm [2]: 19
Abs Max [2]: 337
Em. Max. [2]: 438
Emission Bandwidth [2]: 82
Emission Bandwidth [cm^-1] [2]: 4825
ε [2]: 37400 M⁻¹ cm⁻¹
Quantum Yield [2]: low
Water Solubility [3]: high

C=C[C@H]1C[N@@]2CC[C@H]1C[C@H]2[C@H](O)c1ccnc2ccc(OC)cc12 [quinine sulfate]
quantum yield of standard [9]: 0.55

Reference: patent US5132432A, “Chemically reactive pyrenyloxy sulfonic acid dyes” (Molecular Probes, Inc., priority 1989, dated 1992)
